Assay [1] deals with EA150 cells. The assay can be described thus: MTS growth inhibition assay. Type of assay: cell-based. How it is done: (§1) Growth inhibition may be analyzed using conventional methods, for example a MTS assay (PROMEGA, Wis.) may be used. In this assay approximately 4000 cells per well are seeded in 96 well plates in MEM supplemented with 10% fetal calf serum and incubated at 37° C. in 5.0% CO2. After 24 hours, dilutions of drug (concentration range used is between 1 nM and 1000 nM) are added and cells are allowed to incubate with drug for an additional 72 hours. The MTS reagent mixed with PMS (MTS:PMS 20:1 according to manufacturer's instructions) is then added and absorbance quantitated using a Thermomax microplate reader system according to conventional methods (Molecular Devices, Sunnyvale, Calif.). […] Six assays per drug per plate are performed.
(§2) Thus, at least two potential mechanisms of epothilone A resistance may exist—a lower resistance mechanism that is cross-resistant to TAXOL® and a higher, epothilone A specific resistance mechanism.
Background: Formazan colour is commonly taken as a measure of viable cells.

Assay [2] deals with MDA-MB-435 cells. In words: MTS growth inhibition assay. Format: cell-based. The following applies: MTS, 72 hours drug, Table 1. How it is done:
as §1, §2

Assay [3] has as its system EA20 cells. In words: MTS growth inhibition assay. Type of assay: cell-based. On the procedure:
as §1, §2

Assay [4] relates to EA10 cells. The assay can be described thus: MTS growth inhibition assay. Type of assay: cell-based. On the procedure:
as §1, §2

The subject of assay [5] is EA60 cells. The assay can be described thus: MTS growth inhibition assay. Format: cell-based. On the procedure:
as §1, §2

Assay [6] relates to KB-31 cells. In words: In vitro cell growth inhibition assay (methylene blue). Particulars: read-out: concentration half-maximally inhibiting proliferation. Format: cell-based, human. On the procedure:
Anti-proliferative assays are performed basically as described (Meyer et al., Int. J. Cancer 43:851 (1989)). Briefly, cells are seeded at 1.5×10^3 cells/well into 96-well microtiter plates and allowed to adhere by incubation overnight. Compounds are added in serial dilutions on day 1. The plates are then incubated for an additional 3 days, after which the cells are fixed with 3.3% v/v glutaraldehyde, washed with water and stained with 0.05% w/v methylene blue according to conventional methods. After washing, the dye is eluted with 3% HCl and the optical density measured at 665 nm with a SpectraMax Plus (Molecular Devices, Sunnyvale, Calif.) according to manufacturers instructions. IC50 values are determined by mathematical curve-fitting using the SoftPro2.6.1 program (Molecular Devices, Sunnyvale, Calif.) using the formula (OD treated−OD start)/(OD control−OD start)×100. […] IC50 determinations with the cell line 298/D4/40 are performed in the presence of 40 nM epothilone A.
The epothilone resistant cell lines, EpoA320-80C, EpoA320/ND, 298/D4/40, 297/C5/0 and 315/sc5.9 are generated as disclosed above. […] A subclone, 298/D4/40, is adapted to grow in the presence of 40 nM epothilone A administered twice weekly (i.e. at every medium change). […]

Turning to `C/C(=C\c1csc(C)n1)[C@@H]1C[C@@H]2O[C@@H]2CCC[C@H](C)[C@H](O)[C@@H](C)C(=O)C(C)(C)[C@@H](O)CC(=O)O1` [Epothilone A, epothilone A], the “increase in IC50 over MDA-MB-435 cells” value in assay [1] was over 100 fold; in assay [3], 7 fold; in assay [4], 5 fold; in assay [5], 15 fold. The IC50 was over 500 nM in assay [1] (MTS, 72 hours drug, Table 1); 4 ± 1.8 nM in assay [2]; 28 ± 3 nM in assay [3] (MTS, 72 hours drug, Table 1); 18 ± 3.8 nM in assay [4] (MTS, 72 hours drug, Table 1); 82 ± 1.5 nM in assay [5] (MTS, 72 hours drug, Table 1); 3.2 nM in assay [6].

(Values after patent US20070134744A1, “Epothilone resistant cell lines” (priority 2000, published 2007).)
